Patent US8158609B1, “Use of cyclodextrins as an active ingredient for treating dry AMD and solubilizing drusen” (Novartis AG, priority 2006, dated 2012)
Entries after “also recorded” stand apart in the source; their conditions may differ.

How the values were obtained:
mouse brown fat tissue = test: lipid histochemistry of fresh fat tissue, Oil Red O staining (positive control tissue); conditions: for dissolving of mouse fat tissue: 37° C., 24 hrs, compared with untreated fat tissue
Description: (§1) Unfixed, donor eye with AMD drusen was immersed in 30% sucrose in PBS buffer at pH 7.4 for 24 hours at 4° C. for cryoprotection, then embedded in OCT. For cryostat sections, the eye was serially sectioned at 8 μm thickness and stored at −70° C. Drusen were identified under the microscope. Unfixed fresh frozen mouse brown fat tissue was sectioned at 10 μm thickness as the positive control.
Hydroxypropyl β-cyclodextrin selected compound was titered to the best concentration by mouse fat tissue at 37° C. for 24 hrs (Table.2).
(§2) Unfixed frozen human eye drusens were considered closest to the in vivo state of drusen. Mouse brown fat was used for positive control.

[1] = system: lipid component of drusen; test: lipid histochemistry of drusen in eyes with AMD, Oil Red O staining; design: species or system human; conditions: 40 ml of 25% solution, 37° C., 24 hrs
Description: as §1
(§3) A viable in vitro assay to evaluate compounds with a potential to remove drusen in the eye was explored. Sections with drusen were treated with cyclodextrin for 30 min, 1 hr, 2 hrs, 4 hrs, 15 hrs at room temperature. In a subsequent experiment, sections with drusen were immersed in 40 ml of 25% Hydroxypropyl β-cyclodextrin at 37° C. for 24 hrs.
as §2

drusen = test: in vitro drusen removal assay, frozen drusen sections treated with cyclodextrin, H&E staining; design: species or system human
Description: as §1, §3, §2

Sulfonyletherbutyl β-cyclodextrin
dissolving of mouse fat tissue (mouse brown fat tissue; 30% solution): partial fat tissues were dissolved

Hydroxypropyl β-cyclodextrin
ORO staining of lipid-containing drusen / dissolving the lipid component of drusen [1]: stained negatively; also recorded: has efficacy in dissolving the lipid component of drusen | size of a drusen, H&E 40× (FIG. 1C) (drusen; 25% solution, 2 hours): reduced size | change / dissolving of drusen by H&E staining (drusen; 40 ml, 25% (different concentration), 37° C., 24 hrs): no change; also recorded: could not completely dissolve drusen | dissolving of fresh mouse fat tissue (mouse brown fat tissue; 25% solution): has efficacy in dissolving fresh mouse fat tissue | dissolving of mouse fat tissue (mouse brown fat tissue; 25%-45% solution): has effect on dissolving the partial fat tissue; also recorded: partial fat tissues were dissolved
